pIC50: −log10 of the molar value. *1 amine or outer side, *2 acyl side, *3 side chain or, on linkers, in order; H or OH if unused. Where a SMILES comes first, the peptide text is derived from it. Bridges are numbered along the chain shown (N, C = ends). [ ]: non-standard residue; d: D form. The star is where a group is joined. hPhe(3-Cl-4-CF3) = N[C@@H](CCc1ccc(C(F)(F)F)c(Cl)c1)C(=O)O; NPrPhe(4-CF3) = CCCN[C@@H](Cc1ccc(C(F)(F)F)cc1)C(=O)O; X46 = C=CCCN([C@@H](Cc1ccc(C)cc1)C(=O)[*:2])[*:1]; NMePhe(4-Me) = CN[C@@H](Cc1ccc(C)cc1)C(=O)O; NMeGly(cPent) = CN[C@H](C(=O)O)C1CCCC1; NMeAllylGly = C=CC[C@H](NC)C(=O)O; Hyp = O=C(O)[C@@H]1C[C@@H](O)CN1; NMeD = CN[C@@H](CC(=O)O)C(=O)O; NMeL = CN[C@@H](CC(C)C)C(=O)O; Morpholide = C1CN(*)CCO1; Ac5c = NC1(C(=O)O)CCCC1; NEtG = CCNCC(=O)O; Sar = CNCC(=O)O
Assays:
[1] = biological target: HRAS wild-type protein (Homo sapiens, UniProt P01112); experiment: Binding to HRAS by surface plasmon resonance (SPR), KD and KD ratio to KRAS
Sequence of HRAS wild-type protein (P01112 whole entry): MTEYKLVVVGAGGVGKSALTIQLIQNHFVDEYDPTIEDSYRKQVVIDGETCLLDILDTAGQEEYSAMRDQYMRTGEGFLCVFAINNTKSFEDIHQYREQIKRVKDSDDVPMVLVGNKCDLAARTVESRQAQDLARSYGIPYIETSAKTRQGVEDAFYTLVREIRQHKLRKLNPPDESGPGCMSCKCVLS
Procedure, shortened: (§1)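 GDP-bound biotin-Avi RAS captured at ~100–300 RU, 30°C, pH 7.4 HBS containing 10 µM GDP, 10 mM MgCl2, 1 mM DTT, 0.01% Tween 20 and 4% DMSO. KD by 1:1 fitting.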

[2] = test system: human lung cancer strain NCI-H441; format: cell-based
Procedure, shortened: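 Readout: […] after the ATP-based reagent. Compound: serial dilutions in dimethyl sulfoxide.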

[3] = biological target: GDP-bound NRAS wild-type protein (Homo sapiens, UniProt P01111); experiment: Binding to NRAS by surface plasmon resonance (SPR), KD and KD ratio to KRAS
Sequence of GDP-bound NRAS wild-type protein (P01111 whole entry): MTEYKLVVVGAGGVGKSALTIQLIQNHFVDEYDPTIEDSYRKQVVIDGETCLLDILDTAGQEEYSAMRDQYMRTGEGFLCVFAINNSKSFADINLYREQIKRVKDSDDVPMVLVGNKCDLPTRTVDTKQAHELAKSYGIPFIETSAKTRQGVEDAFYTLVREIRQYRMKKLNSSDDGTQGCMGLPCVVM
Procedure, shortened: as §1

[4] = ratio of the KD value with respect to HRAS wild-type protein to the KD value with respect to KRAS
[5] = ratio of the KD value with respect to GDP-bound NRAS wild-type protein to the KD value with respect to KRAS
[6] = ratio of KD for HRAS wild-type protein to KD for KRAS
[7] = ratio of KD for GDP-bound NRAS wild-type protein to KD for KRAS

CC[C@H](C)[C@@H]1NC(=O)[C@H](CC)N(C)C(=O)C[C@@H](C(=O)N(C)C)N(CC)C(=O)[C@H](C2CCCC2)N(C)C(=O)C2(CCC2)NC(=O)[C@@H]2C[C@H](N3CCC(F)(F)CC3)CN2C(=O)[C@H](CCc2cc(F)c(C(F)(F)F)c(F)c2)NC(=O)CN(C)C(=O)[C@H](Cc2ccc(C(F)(F)F)cc2)N2CCCC[C@@H](C2=O)N(C)C(=O)CN(C)C1=O [PP0659]
HRAS /KRAS [1, 4]: B (a compound having 3 or more and less than 10 is denoted as B) | pIC50 [2]: 6.73 | NRAS /KRAS [3, 5]: B (a compound having 3 or more and less than 10 is denoted as B)

CCO[C@@H]1C[C@H]2C(=O)NC3(CCC3)C(=O)N(C)[C@@H](C3CCCC3)C(=O)N(C)[C@H](C(=O)N3CCCCC3)CC(=O)N(C)[C@H]3CCC/C=C/c4ccc(cc4)C[C@@H](C(=O)N(C)CC(=O)N[C@@H](CCc4cc(F)c(C(F)(F)F)c(F)c4)C(=O)N2C1)N1CC/C=C\C[C@@H](C1=O)N(C)C(=O)CN(C1CC1)C(=O)[C@H]([C@@H](C)CC)NC3=O [PP2954]
HRAS /KRAS [1, 6]: A (a compound having 10 or more and less than 20 is denoted as A) | pIC50 [2]: 7.78 | NRAS /KRAS [3, 7]: A (a compound having 10 or more and less than 20 is denoted as A)

CC[C@H](C)[C@@H]1NC(=O)[C@H](CC(C)C)NC(=O)C[C@@H](C(=O)N2CCOCC2)N(C)C(=O)[C@H](C2CCCC2)N(C)C(=O)C2(CCCC2)NC(=O)[C@@H]2CCCN2C(=O)[C@H](CCc2cc(F)c(C(F)(F)F)c(F)c2)NC(=O)CN(C)C(=O)[C@H](Cc2ccc(C(F)(F)F)cc2)N2CCCC[C@@H](C2=O)N(C)C(=O)CN(C)C1=O [PP0590]
HRAS /KRAS [1, 4]: B (a compound having 3 or more and less than 10 is denoted as B) | pIC50 [2]: 7.68 | NRAS /KRAS [3, 5]: C (A compound having a KD ratio of 0.1 or more and less than 3 is denoted as C)

CC[C@H](C)[C@@H]1NC(=O)[C@H](CC(C)C)N(C)C(=O)C[C@@H](C(=O)N2CCOCC2)N(C)C(=O)[C@H](C2CCCC2)N(C)C(=O)C2(CCCC2)NC(=O)[C@@H]2CCCN2C(=O)[C@H](CCc2ccc(C(F)(F)F)c(Cl)c2)NC(=O)CN(CC)C(=O)[C@H](Cc2ccc(C)cc2)N(C)C(=O)CN(CC)C(=O)CN(C)C1=O [PP0029] ([NMeL]I[Sar][NEtG][NMePhe(4-Me)][NEtG][hPhe(3-Cl-4-CF3)]P[Ac5c][NMeGly(cPent)][NMeD]-Morpholide; lactam N-11)
HRAS /KRAS [1, 6]: C (A compound having a KD ratio of 0.1 or more and less than 3 is denoted as C) | pIC50 [2]: 7.58 | NRAS /KRAS [3, 7]: C (A compound having a KD ratio of 0.1 or more and less than 3 is denoted as C)

CCCN1C(=O)CN(C)C(=O)CN(CC)C(=O)[C@H]([C@@H](C)CC)NC(=O)[C@H](CC(C)C)N(C)C(=O)C[C@@H](C(=O)N2CCOCC2)NC(=O)[C@H](C2CCCC2)N(C)C(=O)C2(CCCC2)NC(=O)[C@@H]2C[C@@H](OCC)CN2C(=O)[C@H](CCc2ccc(C(F)(F)F)c(Cl)c2)NC(=O)CN(C)C(=O)[C@@H]1Cc1ccc(C(F)(F)F)cc1 [PP0335] ([NMeL]I[NEtG][Sar][NPrPhe(4-CF3)][Sar][hPhe(3-Cl-4-CF3)][Hyp](Et)[Ac5c][NMeGly(cPent)]D-Morpholide; lactam N-11)
HRAS /KRAS [1, 6]: C (A compound having a KD ratio of 0.1 or more and less than 3 is denoted as C) | pIC50 [2]: 7.38 | NRAS /KRAS [3, 7]: B (a compound having 3 or more and less than 10 is denoted as B)

CCO[C@@H]1C[C@H]2C(=O)NC3(CCC3)C(=O)N(C)[C@@H](C3CCCC3)C(=O)N(C)[C@H](C(=O)N(C)CC)CC(=O)N(C)[C@@H](CC3CCC3)C(=O)N[C@@H]([C@@H](C)CC)C(=O)N(C)CC(=O)N(C)[C@H]3C/C=C\CCN(C3=O)[C@@H](Cc3ccc(C(F)(F)F)cc3)C(=O)N(C)CC(=O)N[C@@H](CCc3ccc(C(F)(F)F)c(Cl)c3)C(=O)N2C1 [PP2826]
HRAS /KRAS [1, 6]: A (a compound having 10 or more and less than 20 is denoted as A) | pIC50 [2]: 8.07 | NRAS /KRAS [3, 7]: A (a compound having 10 or more and less than 20 is denoted as A)

CCCO[C@@H]1C[C@H]2C(=O)NC3(CC(C)(C)C3)C(=O)N(C)[C@@H](C(CC)CC)C(=O)N(C)[C@H](C(=O)N(C)C)CC(=O)N(C)[C@H]3CCCc4ccc(cc4)C[C@@H](C(=O)N(C)CC(=O)N[C@@H](CCc4ccc(C(F)(F)F)c(OC)c4)C(=O)N2C1)N1CC/C=C\C[C@@H](C1=O)N(C)C(=O)CN(C)C(=O)[C@H]([C@@H](C)CC)NC3=O [PP3063]
HRAS /KRAS [1, 6]: B (a compound having 3 or more and less than 10 is denoted as B) | pIC50 [2]: 7.49 | NRAS /KRAS [3, 7]: B (a compound having 3 or more and less than 10 is denoted as B)

C=CCN1CC(=O)N(C)[C@H]2C/C=C\CCN(C2=O)[C@@H](Cc2ccc(C(F)(F)F)cc2)C(=O)N(C)CC(=O)N[C@@H](CCc2cc(F)c(C(F)(F)F)c(F)c2)C(=O)N2C[C@H](OCC)C[C@H]2C(=O)NC2(CC(C)(C)C2)C(=O)N(C)[C@@H](C2CCCC2)C(=O)N(C)[C@H](C(=O)N(C)C)CC(=O)N(C)[C@@H](CCC)C(=O)N[C@@H]([C@@H](C)CC)C1=O [PP2102]
HRAS /KRAS [1, 4]: A (a compound having 10 or more and less than 20 is denoted as A) | pIC50 [2]: 8.15 | NRAS /KRAS [3, 5]: A (a compound having 10 or more and less than 20 is denoted as A)

CCO[C@@H]1C[C@H]2C(=O)NC3(CC=CC3)C(=O)N(C)[C@@H](C3CCCC3)C(=O)N(C)[C@H](C(=O)N3CCOCC3)CC(=O)N(C)[C@@H](CC(C)C)C(=O)N[C@@H]([C@@H](C)CC)C(=O)N(C)CC(=O)N(C)[C@H]3CCCCCN(C3=O)[C@@H](Cc3ccc(C(F)(F)F)cc3)C(=O)N(C)CC(=O)N[C@@H](CCc3cc(F)c(C(F)(F)F)c(F)c3)C(=O)N2C1 [PP0727]
HRAS /KRAS [1, 4]: B (a compound having 3 or more and less than 10 is denoted as B) | pIC50 [2]: 7.07 | NRAS /KRAS [3, 5]: B (a compound having 3 or more and less than 10 is denoted as B)

CCCN1C(=O)CN(C)C(=O)CN(CC)C(=O)[C@H]([C@@H](C)CC)NC(=O)[C@H](CC(C)C)N(C)C(=O)C[C@@H](C(=O)N2CCOCC2)NC(=O)[C@H](C2CCCC2)N(C)C(=O)C2(CCCC2)NC(=O)[C@@H]2CCCN2C(=O)[C@H](CCc2ccc(C(F)(F)F)c(Cl)c2)NC(=O)CN(C)C(=O)[C@@H]1Cc1ccc(C(F)(F)F)cc1 [PP0331] ([NMeL]I[NEtG][Sar][NPrPhe(4-CF3)][Sar][hPhe(3-Cl-4-CF3)]P[Ac5c][NMeGly(cPent)]D-Morpholide; lactam N-11)
HRAS /KRAS [1, 6]: B (a compound having 3 or more and less than 10 is denoted as B) | pIC50 [2]: 7.07 | NRAS /KRAS [3, 7]: B (a compound having 3 or more and less than 10 is denoted as B)

C=CCCN1C(=O)[C@H](CC=C)N(C)C(=O)CN(C)C(=O)[C@H]([C@@H](C)CC)NC(=O)[C@H](CC(C)C)N(C)C(=O)C[C@@H](C(=O)N2CCOCC2)N(C)C(=O)[C@H](C2CCCC2)N(C)C(=O)C2(CCCC2)NC(=O)[C@@H]2CCCN2C(=O)[C@H](CCc2ccc(C(F)(F)F)c(Cl)c2)NC(=O)CN(C)C(=O)[C@@H]1Cc1ccc(C)cc1 [PP0140] ([NMeL]I[Sar][NMeAllylGly][X46][Sar][hPhe(3-Cl-4-CF3)]P[Ac5c][NMeGly(cPent)][NMeD]-Morpholide; lactam N-11)
HRAS /KRAS [1, 6]: B (a compound having 3 or more and less than 10 is denoted as B) | pIC50 [2]: 6.15 | NRAS /KRAS [3, 7]: C (A compound having a KD ratio of 0.1 or more and less than 3 is denoted as C)

— patent EP4603105A1, “PHARMACEUTICAL COMPOSITION CONTAINING CYCLIC COMPOUND HAVING SELECTIVE KRAS INHIBITORY EFFECT AGAINST HRAS AND NRAS” (CHUGAI SEIYAKU KABUSHIKI KAISHA, priority 2022, dated 2024)
